Test results as given in ChEMBL document CHEMBL5543105, “Total synthesis and structural modification of the dibenzylbutane lignan LCA as a potent anti-inflammatory agent against LPS-induced acute lung injury” (Eur J Med Chem, 2024).
Calls of active or inactive are those of the source. The rule behind the calls is not given here.

Experiments:
[1] = tested on: Mus musculus; test: Anti-inflammatory activity against LPS-induced acute […] injury C57BL/6 mouse model assessed as reduction in IL-1beta level in BALF at 20 mg/kg, ip administered for 1 hr and measured after 6 hrs by ELISA analysis; assay type: functional, organism-based; conditions: time 7.0 hrs
[2] = tested on: RAW264.7; test: Anti-inflammatory activity against mouse RAW264.7 cells assessed as inhibition of LPS-induced p65 phosphorylation at 10 to 20 uM pretreated with compound for 1 hr followed by LPS-induction and measured after 4 hrs by Western blot analysis; assay type: functional, cell-based; conditions: dose 10-20 µM, time 5.0 hrs
[3] = tested on: Mus musculus; test: Anti-inflammatory activity against LPS-induced acute […] injury C57BL/6 mouse model assessed as reduction in alveolar thickness in lung at 20 mg/kg, ip administered for 1 hr and measured after 6 hrs by H and E staining based analysis; assay type: functional, organism-based; conditions: time 7.0 hrs
[4] = tested on: Mus musculus; test: Anti-inflammatory activity against LPS-induced acute […] injury C57BL/6 mouse model assessed as reduction in TNF-alpha level in serum at 20 mg/kg, ip administered for 1 hr and measured after 6 hrs by ELISA analysis; assay type: functional, organism-based; conditions: time 7.0 hrs
[5] = tested on: Mus musculus; test: Anti-inflammatory activity against LPS-induced acute […] injury C57BL/6 mouse model assessed as reduction in IL-1beta level in serum at 20 mg/kg, ip administered for 1 hr and measured after 6 hrs by ELISA analysis; assay type: functional, organism-based; conditions: time 7.0 hrs
[6] = tested on: RAW264.7; test: Anti-inflammatory activity against mouse RAW264.7 cells assessed as reduction in LPS-induced IL-1beta level pretreated with compound for 1 hr followed by LPS-induction and measured after 24 hrs by ELISA analysis; assay type: functional, cell-based; conditions: dose 1.25-20 µM, time 25.0 hrs
[7] = tested on: Mus musculus; test: Anti-inflammatory activity against LPS-induced acute […] injury C57BL/6 mouse model assessed as decrease in IL-6 mRNA expression in lung at 20 mg/kg, ip administered for 1 hr and measured after 6 hrs by RT-qPCR analysis; assay type: functional, organism-based; conditions: time 7.0 hrs
[8] = tested on: Mus musculus; test: Anti-inflammatory activity against LPS-induced acute […] injury C57BL/6 mouse model assessed as reduction in bleeding points in lung at 20 mg/kg, ip administered for 1 hr and measured after 6 hrs by H and E staining based analysis; assay type: functional, organism-based; conditions: time 7.0 hrs
[9] = tested on: Mus musculus; test: Anti-inflammatory activity against LPS-induced acute […] injury C57BL/6 mouse model assessed as reduction in TNF-alpha level in BALF at 20 mg/kg, ip administered for 1 hr and measured after 6 hrs by ELISA analysis; assay type: functional, organism-based; conditions: time 7.0 hrs
[10] = tested on: RAW264.7; test: Anti-inflammatory activity against mouse RAW264.7 cells assessed as inhibition of LPS-induced IL-1beta mRNA expression pretreated with compound for 1 hr followed by LPS-induction and measured after 24 hrs by RT-qPCR analysis; assay type: functional, cell-based; conditions: dose 10-20 µM, time 25.0 hrs
[11] = tested on: RAW264.7; test: Anti-inflammatory activity against mouse RAW264.7 cells assessed as inhibition of LPS-stimulated nitric oxide production at 2.5 to 20 uM incubated for 5 hrs by Griess reagent based microplate reader analysis; assay type: functional, cell-based; conditions: dose 2.5-20 µM
[12] = tested on: Mus musculus; test: Anti-inflammatory activity against LPS-induced acute […] injury C57BL/6 mouse model assessed as improvement in destruction of lung structure at 20 mg/kg, ip administered for 1 hr and measured after 6 hrs by H and E staining based analysis; assay type: functional, organism-based; conditions: time 7.0 hrs
[13] = tested on: Mus musculus; test: Anti-inflammatory activity against LPS-induced acute […] injury C57BL/6 mouse model assessed as decrease in TNF-alpha mRNA expression in lung at 20 mg/kg, ip administered for 1 hr and measured after 6 hrs by RT-qPCR analysis; assay type: functional, organism-based; conditions: time 7.0 hrs
[14] = tested on: RAW264.7; test: Anti-inflammatory activity against mouse RAW264.7 cells assessed as inhibition of LPS-induced NO production at 20 uM incubated for 24 hrs; assay type: functional, cell-based
[15] = tested on: Mus musculus; test: Anti-inflammatory activity against LPS-induced acute […] injury C57BL/6 mouse model assessed as improvement in pulmonary hemorrhage at 20 mg/kg, ip administered for 1 hr and measured after 6 hrs by H and E staining based analysis; assay type: functional, organism-based; conditions: time 7.0 hrs
[16] = tested on: RAW264.7; test: Anti-inflammatory activity against mouse RAW264.7 cells assessed as reduction in LPS-induced IL-6 level pretreated with compound for 1 hr followed by LPS-induction and measured after 24 hrs by ELISA analysis; assay type: functional, cell-based; conditions: dose 1.25-20 µM, time 25.0 hrs
[17] = tested on: RAW264.7; test: Anti-inflammatory activity against mouse RAW264.7 cells assessed as reduction in LPS-induced IkappaBalpha level at 10 to 20 uM pretreated with compound for 1 hr followed by LPS-induction and measured after 4 hrs by Western blot analysis; assay type: functional, cell-based; conditions: dose 10-20 µM, time 5.0 hrs
[18] = tested on: RAW264.7; test: Anti-inflammatory activity against mouse RAW264.7 cells assessed as reduction in NO level pretreated with compound for 1 hr followed by LPS-induction and measured after 24 hrs; assay type: functional, cell-based; conditions: dose 1.25-20 µM, time 25.0 hrs
[19] = tested on: RAW264.7; test: Anti-inflammatory activity against mouse RAW264.7 cells assessed as inhibition of LPS-induced IL-6 mRNA expression pretreated with compound for 1 hr followed by LPS-induction and measured after 24 hrs by RT-qPCR analysis; assay type: functional, cell-based; conditions: dose 10-20 µM, time 25.0 hrs
[20] = tested on: RAW264.7; test: Anti-inflammatory activity against mouse RAW264.7 cells assessed as reduction in LPS-induced TNF-alpha level pretreated with compound for 1 hr followed by LPS-induction and measured after 24 hrs by ELISA analysis; assay type: functional, cell-based; conditions: dose 1.25-20 µM, time 25.0 hrs
[21] = tested on: Mus musculus; test: Anti-inflammatory activity against LPS-induced acute […] injury C57BL/6 mouse model assessed as reduction in inflammatory cell infiltration at 20 mg/kg, ip administered for 1 hr and measured after 6 hrs by H and E staining based analysis; assay type: functional, organism-based; conditions: time 7.0 hrs
[22] = tested on: Mus musculus; test: Anti-inflammatory activity against LPS-induced acute […] injury C57BL/6 mouse model assessed as reduction in IL-6 level in BALF at 20 mg/kg, ip administered for 1 hr and measured after 6 hrs by ELISA analysis; assay type: functional, organism-based; conditions: time 7.0 hrs
[23] = tested on: Mus musculus; test: Anti-inflammatory activity against LPS-induced acute […] injury C57BL/6 mouse model assessed as improvement in alveolar wall thickness at 20 mg/kg, ip administered for 1 hr and measured after 6 hrs by H and E staining based analysis; assay type: functional, organism-based; conditions: time 7.0 hrs
[24] = tested on: Mus musculus; test: Anti-inflammatory activity against LPS-induced acute […] injury C57BL/6 mouse model assessed as improvement in lung edema at 20 mg/kg, ip administered for 1 hr and measured after 6 hrs by H and E staining based analysis; assay type: functional, organism-based; conditions: time 7.0 hrs
[25] = tested on: Mus musculus; test: Anti-inflammatory activity against LPS-induced acute […] injury C57BL/6 mouse model assessed as reduction in IL-6 level in serum at 20 mg/kg, ip administered for 1 hr and measured after 6 hrs by ELISA analysis; assay type: functional, organism-based; conditions: time 7.0 hrs
[26] = tested on: Mus musculus; test: Anti-inflammatory activity against LPS-induced acute […] injury C57BL/6 mouse model assessed as improvement in alveolar structure at 20 mg/kg, ip administered for 1 hr and measured after 6 hrs by H and E staining based analysis; assay type: functional, organism-based; conditions: time 7.0 hrs
[27] = tested on: Mus musculus; test: Anti-inflammatory activity against LPS-induced acute […] injury C57BL/6 mouse model assessed as reduction in lung edema at 20 mg/kg, ip administered for 1 hr and measured after 6 hrs by H and E staining based analysis; assay type: functional, organism-based; conditions: time 7.0 hrs
[28] = tested on: RAW264.7; test: Anti-inflammatory activity against mouse RAW264.7 cells assessed as inhibition of LPS-induced TNF-alpha mRNA expression pretreated with compound for 1 hr followed by LPS-induction and measured after 24 hrs by RT-qPCR analysis; assay type: functional, cell-based; conditions: dose 10-20 µM, time 25.0 hrs
[29] = tested on: Mus musculus; test: Anti-inflammatory activity against LPS-induced acute […] injury C57BL/6 mouse model assessed as reduction in congestion in lung at 20 mg/kg, ip administered for 1 hr and measured after 6 hrs by H and E staining based analysis; assay type: functional, organism-based; conditions: time 7.0 hrs
[30] = tested on: Mus musculus; test: Anti-inflammatory activity against LPS-induced acute […] injury C57BL/6 mouse model assessed as decrease in IL-1beta mRNA expression in lung at 20 mg/kg, ip administered for 1 hr and measured after 6 hrs by RT-qPCR analysis; assay type: functional, organism-based; conditions: time 7.0 hrs
[31] = tested on: Mus musculus; test: Anti-inflammatory activity against LPS-induced acute […] injury C57BL/6 mouse model assessed as reduction in wet weight to dry weight ratio in lung at 20 mg/kg, ip administered for 1 hr and measured after 6 hrs; assay type: functional, organism-based; conditions: time 7.0 hrs
[32] = tested on: RAW264.7; test: Anti-inflammatory activity against mouse RAW264.7 cells assessed as inhibition of LPS-induced nuclear translocation at 10 to 20 uM pretreated with compound for 1 hr followed by LPS-induction and measured after 4 hrs by DAPI staining based fluorescence microscopic analysis; assay type: functional, cell-based; conditions: dose 10-20 µM, time 5.0 hrs
[33] = tested on: RAW264.7; test: Cytotoxicity against mouse RAW264.7 cells upto 20 uM incubated for 24 hrs by CCK-8 assay; assay type: toxicity, cell-based; conditions: raw264.7, 24 h

COc1cc(C[C@H](C(=O)N2CCN(c3cccc(C)c3C)CC2)[C@@H](Cc2cc(OC)c(O)c(OC)c2)C(=O)N2CCN(c3cccc(C)c3C)CC2)cc(OC)c1O
Activity [1]: Active
Activity [2]: Active
Activity [3]: Active
Activity [4]: Active
Activity [5]: Active
Activity [6]: Dose-Dependent Effect
Activity [7]: Active
Activity [8]: Active
Activity [9]: Active
Activity [10]: Dose-Dependent Effect
Activity [11]: Active
Activity [12]: Active
Activity [13]: Active
Activity [14]: Active
Activity [15]: Active
Activity [16]: Dose-Dependent Effect
Activity [17]: Active
Activity [18]: Dose-Dependent Effect
Activity [19]: Dose-Dependent Effect
Activity [20]: Dose-Dependent Effect
Activity [21]: Active
Activity [22]: Active
Activity [23]: Active
Activity [24]: Active
Activity [25]: Active
Activity [26]: Active
Activity [27]: Active
Activity [28]: Dose-Dependent Effect
Activity [29]: Active
Activity [30]: Active
Activity [31]: Active
Activity [32]: Active
Activity [33]: Non-Toxic
